Article PMC10454678, “Synthesis of hydroxy benzoin/benzil analogs and investigation of their antioxidant, antimicrobial, enzyme inhibition, and cytotoxic activities” (Turkish Journal of Chemistry, 2021)
Converted amounts (≈) assume the structure as drawn. Where two headings read alike, the source gives them in different places.

Tests used:
[1] = system: Escherichia coli ATCC 25922; assay: MIC, microdilution, E. coli; format: cell-based; details: Escherichia coli
[2] = system: Yersinia pseudotuberculosis ATCC911; assay: microbe, parasite or virus in culture; format: cell-based; details: Yersinia pseudotuberculosis, ATCC911, read-out: MIC Yp
[3] = system: Pseudomonas aeruginosa ATCC27853; assay: MIC, microdilution, P. aeruginosa; format: cell-based; details: Pseudomonas aeruginosa
[4] = system: Staphylococcus aureus ATCC25923; assay: MIC, microdilution, S. aureus; format: cell-based; details: Staphylococcus aureus
[5] = system: Streptococcus mutans RSKK07038; assay: MIC, microdilution, S. mutans; format: cell-based; details: Streptococcus mutans, read-out: MIC Sm
[6] = system: Enterococcus faecalis ATCC29212; assay: MIC, microdilution, E. faecalis; format: cell-based; details: Enterococcus faecalis
Bacillus cereus Roma709 = assay: MIC, microdilution, B. cereus; format: cell-based; details: Bacillus cereus
[7] = system: Mycobacterium smegmatis ATCC607; assay: MIC, microdilution, M. smegmatis; format: cell-based; details: Tub., BHI broth, 36 °C; for MIC: Mycolicibacterium smegmatis, ATCC607, 72 h, read-out: MIC Ms; for MIC Ms: 72 h
[8] = system: Candida albicans ATCC60193; assay: MIC, microdilution, C. albicans; format: cell-based; details: Candida albicans, read-out: MIC Ca
acetylcholinesterase = acetylcholinesterase (Homo sapiens, UniProt P22303); assay: biochemical; details: Tris-HCl pH 8.0, 25 °C, 405 nm; read-out: AChE IC50 (converted)
acetylcholinesterase, sequence (P22303 32-614, species assumed): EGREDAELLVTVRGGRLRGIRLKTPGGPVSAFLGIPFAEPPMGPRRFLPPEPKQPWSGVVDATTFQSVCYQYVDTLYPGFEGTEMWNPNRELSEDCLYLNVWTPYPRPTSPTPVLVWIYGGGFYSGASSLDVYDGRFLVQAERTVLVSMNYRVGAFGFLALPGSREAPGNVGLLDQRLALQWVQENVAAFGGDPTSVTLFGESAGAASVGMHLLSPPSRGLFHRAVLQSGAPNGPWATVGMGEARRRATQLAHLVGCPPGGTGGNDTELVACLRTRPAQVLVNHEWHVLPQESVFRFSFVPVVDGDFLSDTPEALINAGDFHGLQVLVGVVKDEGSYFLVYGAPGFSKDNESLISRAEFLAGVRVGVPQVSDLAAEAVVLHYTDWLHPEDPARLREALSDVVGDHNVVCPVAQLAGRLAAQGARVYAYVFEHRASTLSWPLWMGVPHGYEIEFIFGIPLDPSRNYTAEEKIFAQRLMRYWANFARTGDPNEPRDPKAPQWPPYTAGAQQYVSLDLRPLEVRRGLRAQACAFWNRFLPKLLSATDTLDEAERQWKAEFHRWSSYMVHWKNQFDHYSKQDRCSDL

butyrylcholinesterase = butyrylcholinesterase (Homo sapiens, UniProt P06276); assay: biochemical; details: Tris-HCl pH 8.0, 25 °C, 405 nm; read-out: BChE IC50 (converted)
butyrylcholinesterase, sequence (P06276 29-602): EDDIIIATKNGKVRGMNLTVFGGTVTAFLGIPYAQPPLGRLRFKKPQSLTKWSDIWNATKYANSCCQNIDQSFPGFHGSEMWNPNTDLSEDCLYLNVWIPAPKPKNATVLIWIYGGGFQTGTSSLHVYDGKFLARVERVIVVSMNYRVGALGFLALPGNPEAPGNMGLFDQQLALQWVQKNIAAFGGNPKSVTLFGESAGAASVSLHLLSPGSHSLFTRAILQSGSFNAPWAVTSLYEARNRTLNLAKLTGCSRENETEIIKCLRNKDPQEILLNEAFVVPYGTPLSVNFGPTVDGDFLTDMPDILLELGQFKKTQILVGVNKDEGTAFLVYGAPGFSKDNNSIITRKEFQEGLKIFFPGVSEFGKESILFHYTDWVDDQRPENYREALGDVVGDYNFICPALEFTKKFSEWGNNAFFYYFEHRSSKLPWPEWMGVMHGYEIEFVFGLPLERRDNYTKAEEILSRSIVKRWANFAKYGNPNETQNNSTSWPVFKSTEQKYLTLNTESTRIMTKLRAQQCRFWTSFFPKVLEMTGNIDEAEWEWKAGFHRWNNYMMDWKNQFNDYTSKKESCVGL

α-glucosidase = assay: α-Glucosidase inhibition; format: biochemical; details: PNPG, pH 6.8, 37 °C, 400 nm
Description: It was incubated at 37 °C for 15 min. Similarly, an enzyme-free blank was prepared. The reaction was stopped when sodium carbonate (50 μL, 0.2 M) was added.

[9] = DPPH radical scavenging activity; details: 0.1 mM DPPH, 50 min dark, 517 nm
[10] = Copper ions reducing activity (CUPRAC); details: Trolox equivalents; 30 min dark, room temperature, 450 nm
[11] = Ferric reducing antioxidant power (FRAP) assay; details: Trolox equivalents; compounds 2 mg/mL, 30 °C 30 min, 595 nm
[12] = system: human retinal normal cell line (RPE); assay: MTT cell proliferation, RPE; details: Homo sapiens, 24 h; for GI50: read-out: GI50 RPE normal cell line; for IC50: read-out: IC50 RPE normal cell line
[13] = system: human cervical cancer cell line (HeLa); assay: MTT cell proliferation, HeLa; details: Homo sapiens, HeLa, 24 h; for GI50: read-out: GI50 HeLa cell line; for IC50: read-out: IC50 HeLa cell line
[14] = system: Paenibacillus larvae DSM7030; assay: MIC, microdilution, P. larvae; format: cell-based; details: Gram (+) nonpathogenic spore forming
[15] = ATCC27853, Gram (-), Mueller-Hinton broth, 18-24 h, 36 °C, read-out: MIC Pa
[16] = ATCC25923, Gram (+), Mueller-Hinton broth, 18-24 h, 36 °C, read-out: MIC Sa
[17] = RSKK07038, Gram (+), BHI broth, 72 h, 36 °C
[18] = ATCC29212, Gram (+), Mueller-Hinton broth, 18-24 h, 36 °C, read-out: MIC Ef
[19] = ROMA709, Gram (+), Mueller-Hinton broth, 18-24 h, 36 °C, read-out: MIC Bc
[20] = ATCC60193, fungus, YEPD broth, 48 h, 36 °C
[21] = ATCC25922, Gram (-), Mueller-Hinton broth, 18-24 h, 36 °C, read-out: MIC Ec

SMILES | MIC ([1]; ATCC25922, read-out: MIC Ec) [mg/L] | MIC [2] [mg/L] | MIC [3, 15] [mg/L] | MIC [4, 16] [mg/L] | MIC [5, 17] [mg/L] | MIC [6, 18] [mg/L] | MIC (Bacillus cereus Roma709; [19]) [mg/L] | MIC [7] [mg/L] | MIC Ms [7] [mg/L] | MIC [8, 20] [mg/L] | IC50 (acetylcholinesterase) [µM] | IC50 (butyrylcholinesterase) [µM] | α-Glucosidase IC50 (α-glucosidase) [mg/L] | DPPH radical scavenging capacity (SC50) [9] [mg/mL] | CUPRAC, copper reducing antioxidant power [10] [μg/mL trolox/gram DW] | FRAP, the iron reducing antioxidant power [11] [μg/mL trolox/gram DW] | MIC [1, 21] [mg/L] | GI50 [12] [mg/L] | IC50 [12] [mg/L] | GI50 [13] [mg/L] | also measured
O=C(C(=O)c1cccc(O)c1)c1ccccc1 [Compound 8, 1-(3-Hydroxyphenyl)-2-phenylethane-1,2-dione] | 167 (≈ 738 µM) | 167 (≈ 738 µM) | 11 (≈ 48.6 µM) | 11 (≈ 48.6 µM) | 21 (≈ 92.8 µM) | 21 (≈ 92.8 µM) | 11 (≈ 48.6 µM) | 9 to 18 (≈ 39.8 to 79.6 µM) | 11 (≈ 48.6 µM) | 41 (≈ 181 µM) | > 4420 | > 4420 | >1000 | 13.56 ± 1.2 | 1095.00 ± 18.1 | 1678 ± 64.6 | – | – | – | – | –
O=C(C(=O)c1ccc(O)cc1)c1ccccc1 [Compound 9, 1-(4-Hydroxyphenyl)-2-phenylethane-1,2-dione] | 108 (≈ 477 µM) | 217 (≈ 959 µM) | 108 (≈ 477 µM) | – | – | 108 (≈ 477 µM) | – | 108 (≈ 477 µM) | – | 108 (≈ 477 µM) | 637 | > 4420 | 47.78 | 8.64 ± 0.5 | 48.33 ± 5.5 | 1946 ± 83.7 | – | – | – | – | MIC ([4]; ATCC25923, read-out: MIC Sa): 108 mg/L (≈ 477 µM); MIC (Bacillus cereus Roma709; ROMA709, read-out: MIC Bc): 108 mg/L (≈ 477 µM)
O=C(C(=O)c1cccc(O)c1)c1cccc(O)c1 [Compound 11, 1,2-Bis(3-hydroxyphenyl)ethane-1,2-dione] | – | 145 (≈ 599 µM) | 18 (≈ 74.3 µM) | 9 (≈ 37.2 µM) | 18 (≈ 74.3 µM) | – | 18 (≈ 74.3 µM) | 9 to 18 (≈ 37.2 to 74.3 µM) | 9 (≈ 37.2 µM) | 36 (≈ 149 µM) | 257 | 1400 | 66.700 | 10.03 ± 0.8 | 175.00 ± 3.5 | 1340 ± 37.9 | 36 (≈ 149 µM) | – | – | – | –
O=C(C(=O)c1cccc(O)c1)c1ccc(O)cc1 [Compound 12, 1-(4-Hydroxyphenyl)-2-(3-hydroxyphenyl)ethane-1,2-dione] | – | 38 (≈ 157 µM) | 75 (≈ 310 µM) | 38 (≈ 157 µM) | – | 18 (≈ 74.3 µM) | 75 (≈ 310 µM) | 9 to 18 (≈ 37.2 to 74.3 µM) | 18 (≈ 74.3 µM) | 18 (≈ 74.3 µM) | 2070 | 1910 | 54.69 | 12.87 ± 0.9 | 155.00 ± 1.0 | 1555 ± 34.1 | 75 (≈ 310 µM) | 1.92 (≈ 7.93 µM) | 105 (≈ 434 µM) | 2.04 (≈ 8.42 µM) | IC50 [13]: 85.2 mg/L (≈ 352 µM)
O=C(C(=O)c1cc(O)cc(O)c1)c1cccc(O)c1 [Compound 13, 1-(3,5-Dihydroxyphenyl)-2-(3-hydroxyphenyl)ethane-1,2-dione] | 167 (≈ 647 µM) | 167 (≈ 647 µM) | – | 11 (≈ 42.6 µM) | – | – | 11 (≈ 42.6 µM) | 9 to 18 (≈ 34.9 to 69.7 µM) | 11 (≈ 42.6 µM) | – | > 3870 | > 3870 | >1000 | 9.42 ± 0.8 | – | 1844 ± 56.2 | – | – | – | – | MIC ([3]; ATCC27853, read-out: MIC Pa): 11 mg/L (≈ 42.6 µM); MIC ([5]; RSKK07038, 72 h): 21 mg/L (≈ 81.3 µM); MIC ([6]; ATCC29212, read-out: MIC Ef): 21 mg/L (≈ 81.3 µM); MIC ([8]; ATCC60193, 48 h): 41 mg/L (≈ 159 µM)
O=C(C(=O)c1cccc(OC2O[C@H](CO)[C@@H](O)[C@H](O)[C@H]2O)c1)c1ccc(O)cc1 (stereo partly drawn) [Compound 25, 1-(3-O-β -D-Glucopyranosylphenyl)-2-(4-hydroxyphenyl)ethane-1,2-dione] | – | – | – | – | – | – | – | 8 to 15 (≈ 19.8 to 37.1 µM) | – | – | 562 | 331 | >1000 | 26.33 ± 0.39 | 147.54 ± 25.04 | 2570.42 ± 25.01 | 8 to 15 (≈ 19.8 to 37.1 µM) | 3.38 (≈ 8.36 µM) | 102 (≈ 252 µM) | 2.21 (≈ 5.47 µM) | MIC [14]: 8 to 15 mg/L (≈ 19.8 to 37.1 µM); IC50 [13]: 81.5 mg/L (≈ 202 µM)
